Results reported in article PMC8459971, “Evaluation of the hepatotoxicity of the novel GPR40 (FFAR1) agonist CPL207280 in the rat and monkey” (PLoS ONE, 2021).
Where “and” joins values, the source holds several entries; their conditions need not be identical. Equal entries are not always repeated.

Tests used:
[1] = Viability assay, human primary hepatocytes, RT-glo, 48 h; format: cell-based; conditions: human, primary human hepatocytes, sheet Fig1 panel C (primary human hepatocytes), 48 h, replicates, read-out: viability, normalized to DMSO-treated controls
Procedure: (§1) To study the viability of the liver cells, 5 × 10^3 HepG2 (ATCC®) or human primary cells (ThermoFisher Scientific, USA) were seeded in 100 μL of DMEM media (Gibco; Thermo Fisher Scientific, USA) supplemented with fetal bovine serum (FBS)- in a 96-well plate. […] The experiments were performed in triplicates.

[2] = tested on: human primary hepatocytes; experiment: as above; format: cell-based; conditions: 48 h
Procedure: as §1

MRP4 = biological target: T1, MRP4 (Homo sapiens, UniProt O15439); experiment: Vesicular transport inhibition assay, MRP4; conditions: for Accumulation (counts per minute; CPM) with AMP / Accumulation (counts per minute; CPM) with ATP: MRP4;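 note: membrane vesicles with MRP4 incubated with compound and probe substrate plus 4 mM ATP, or AMP as passive-diffusion background, vesicular substrate uptake read by liquid scintillation counting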;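 for Accumulation (counts per minute; CPM) with AMP: ATP 4 mM vs AMP background separates transporter uptake from diffusion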;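 for Accumulation (counts per minute; CPM) with ATP: ATP 4 mM vs AMP background separates transporter uptake from diffusion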
T1 sequence (O15439 1-1325): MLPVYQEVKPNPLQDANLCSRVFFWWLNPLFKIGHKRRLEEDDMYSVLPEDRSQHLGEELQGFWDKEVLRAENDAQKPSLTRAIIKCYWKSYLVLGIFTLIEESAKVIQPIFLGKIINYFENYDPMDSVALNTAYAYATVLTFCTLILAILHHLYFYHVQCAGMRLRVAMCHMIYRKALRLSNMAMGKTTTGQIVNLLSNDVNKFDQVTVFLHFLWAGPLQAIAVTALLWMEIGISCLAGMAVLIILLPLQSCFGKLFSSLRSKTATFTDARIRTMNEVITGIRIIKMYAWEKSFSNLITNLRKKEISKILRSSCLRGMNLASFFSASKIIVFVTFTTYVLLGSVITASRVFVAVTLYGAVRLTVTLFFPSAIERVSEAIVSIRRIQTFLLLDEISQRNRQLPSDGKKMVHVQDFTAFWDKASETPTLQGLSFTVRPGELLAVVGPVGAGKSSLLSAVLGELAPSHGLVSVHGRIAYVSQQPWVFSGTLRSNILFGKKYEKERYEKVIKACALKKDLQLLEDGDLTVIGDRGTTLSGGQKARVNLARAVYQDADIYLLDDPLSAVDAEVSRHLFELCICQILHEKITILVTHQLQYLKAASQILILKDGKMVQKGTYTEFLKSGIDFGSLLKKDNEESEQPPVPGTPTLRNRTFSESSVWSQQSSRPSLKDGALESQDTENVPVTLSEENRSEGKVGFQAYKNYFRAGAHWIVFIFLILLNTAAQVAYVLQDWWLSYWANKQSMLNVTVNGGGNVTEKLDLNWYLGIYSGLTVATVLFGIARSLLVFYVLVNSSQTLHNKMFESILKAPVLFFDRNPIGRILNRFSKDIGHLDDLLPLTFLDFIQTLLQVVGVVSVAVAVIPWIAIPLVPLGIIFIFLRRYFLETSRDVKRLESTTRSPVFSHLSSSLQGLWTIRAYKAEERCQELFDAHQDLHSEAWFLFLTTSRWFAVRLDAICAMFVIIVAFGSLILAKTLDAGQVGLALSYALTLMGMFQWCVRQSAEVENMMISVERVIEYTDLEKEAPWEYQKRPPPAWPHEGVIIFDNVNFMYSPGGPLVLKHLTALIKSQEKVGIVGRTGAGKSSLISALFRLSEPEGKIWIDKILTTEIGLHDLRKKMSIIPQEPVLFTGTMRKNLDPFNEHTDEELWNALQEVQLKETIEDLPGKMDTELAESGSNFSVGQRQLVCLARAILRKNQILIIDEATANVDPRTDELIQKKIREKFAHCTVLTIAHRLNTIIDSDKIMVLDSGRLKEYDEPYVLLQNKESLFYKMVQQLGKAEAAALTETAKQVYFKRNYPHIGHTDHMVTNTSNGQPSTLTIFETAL
Procedure: In the vesicular transport inhibition assay (for BSEP, MRP) compounds were incubated with membrane vesicle preparations and the probe substrate. Incubations were carried out in the presence of 4 mM ATP or AMP to distinguish between transporter-mediated uptake and passive diffusion into the vesicles. For MRP2 and MRP3, reactions were carried out in the presence of 2 mM glutathione. Compounds were added to the reaction mixture in 0.75 μL of solvent (1% of the final incubation volume). […] Reactions were initiated by the addition of 25 μL of 12 mM MgATP (or 12 mM AMP in assay buffer as a background control) and preincubated separately. Reactions were quenched by the addition of 200 μL of ice-cold washing buffer and immediate filtration via glass fiber filters mounted on a 96-well plate (filter plate). The filters were washed (5 × 200 μL of ice-cold washing buffer), dried, and the amount of substrate inside the filtered vesicles was determined by liquid scintillation counting.

Cc1cc(OCCCS(C)(=O)=O)cc(C)c1-c1cccc(COc2ccc3c(c2)OC[C@H]3CC(=O)O)c1 [TAK-875, fasiglifam, reference compound]
viability at 48 h, 0.78 µM ([1]; 0.78 uM): 117% | viability at 48 h, 3.125 µM ([1]; 3.125 uM): 113% | viability at 48 h, 6.25 µM ([1]; 6.25 uM): 89.7% | viability at 48 h, 25 µM ([1]; 25 uM): 64.7% | viability at 48 h, 50 µM ([1]; 50 uM): 34.1% | viability at 48 h, 100 µM ([1]; 100 uM): 4.16% | viability ([2]; human primary hepatocytes, concentrations up to 10 μM): Neither compound exhibited altered viability | effect on growth ([2]; primary cells, 100 μM): abolished the growth | IC50 (MRP4): 6.9 µM | Accumulation (counts per minute; CPM) with AMP (MRP4; conc 0.07 µM): 1270 CPM and 1266 CPM | Accumulation (counts per minute; CPM) with ATP (MRP4; conc 0.07 µM): 5265 CPM and 5304 CPM | Accumulation (counts per minute; CPM) with AMP (MRP4; conc 0.21 µM): 1193 CPM and 1241 CPM | Accumulation (counts per minute; CPM) with ATP (MRP4; conc 0.21 µM): 5360 CPM and 5232 CPM | Accumulation (counts per minute; CPM) with AMP (MRP4; conc 0.62 µM): 1249 CPM and 1265 CPM | Accumulation (counts per minute; CPM) with ATP (MRP4; conc 0.62 µM): 5330 CPM and 5164 CPM | Accumulation (counts per minute; CPM) with AMP (MRP4; conc 16.67 µM): 1183 CPM and 1161 CPM | Accumulation (counts per minute; CPM) with ATP (MRP4; conc 16.67 µM): 1970 CPM and 2307 CPM | Accumulation (counts per minute; CPM) with AMP (MRP4; conc 50.00 µM): 1007 CPM and 1016 CPM | Accumulation (counts per minute; CPM) with ATP (MRP4; conc 50.00 µM): 1338 CPM and 1487 CPM
